Laboratory results from ChEMBL document CHEMBL1144999, “Identification of a novel, selective GABA(A) alpha5 receptor inverse agonist which enhances cognition” (J Med Chem, 2003).

Target: T1, Gamma-aminobutyric acid receptor subunit alpha-5 (Homo sapiens) (UniProt P31644)
T1 sequence (whole entry): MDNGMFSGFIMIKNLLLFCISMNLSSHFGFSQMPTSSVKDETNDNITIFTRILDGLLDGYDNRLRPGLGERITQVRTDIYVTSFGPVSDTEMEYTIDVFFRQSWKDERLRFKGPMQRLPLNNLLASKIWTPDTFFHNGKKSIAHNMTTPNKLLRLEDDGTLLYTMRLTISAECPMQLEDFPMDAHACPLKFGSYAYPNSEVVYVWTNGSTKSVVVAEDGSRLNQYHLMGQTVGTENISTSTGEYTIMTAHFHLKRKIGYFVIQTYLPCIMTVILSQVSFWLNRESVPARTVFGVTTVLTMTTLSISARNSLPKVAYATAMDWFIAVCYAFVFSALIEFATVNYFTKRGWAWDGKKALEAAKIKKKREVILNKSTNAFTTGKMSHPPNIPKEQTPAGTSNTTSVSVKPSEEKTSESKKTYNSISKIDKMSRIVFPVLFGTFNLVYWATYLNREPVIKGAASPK
Assay: Binding selectivity for human gamma-aminobutyric-acid A receptor alpha-5 over GABA A alpha1,alpha2 and alpha-3 receptors

| Compound | Selectivity |
| --- | --- |
| CCSc1sc(-c2cc[nH]n2)c2c1C(=O)CC(C)(C)C2 | 10 |
| CC1(C)CC(=O)c2c(SCCO)sc(-c3cc[nH]n3)c2C1 | 11 |
| CC(C)Sc1sc(-c2cc[nH]n2)c2c1C(=O)CC(C)(C)C2 | 6 |
